Source: patent publication US10479786B2, “Protein kinase inhibitors” (Princeton Drug Discovery Inc, priority 2016, dated 2019)
Blank lines part the entries; values can stand above or below the molecule they belong to.

How the values were obtained:
Test in all cases: Off-chip Mobility Shift Assay, kinase inhibition
Type in all cases: biochemical
KIT(D816V) = target: T1, KIT(D816V) (Homo sapiens, UniProt P10721, D816V); details: at 10 nM; recombinant KIT(D816V)
T1 construct: purchased Carna Biosciences, Inc

EGFR(T790M) = target: T2, EGFR(T790M) (Homo sapiens, UniProt P00533, T790M); details: at 10 nM; recombinant EGFR(T790M)
T2 construct: purchased Carna Biosciences, Inc

EGFR(d746-750/T790M) = target: T3, EGFR(d746-750/T790M) (Homo sapiens, UniProt P00533, DEL746-750/T790M); details: at 10 nM; recombinant EGFR(d746-750/T790M)
T3 construct: purchased Carna Biosciences, Inc

CSK = target: T4, CSK (Homo sapiens, UniProt P41240); details: at 10 nM; recombinant CSK
T4 construct: purchased Carna Biosciences, Inc

RET(Y791F) = target: T5, RET(Y791F) (Homo sapiens, UniProt P07949, Y791F); details: at 10 nM; recombinant RET(Y791F)
T5 construct: purchased Carna Biosciences, Inc

KDR = target: T6, KDR (Homo sapiens, UniProt P35968); details: at 10 nM; recombinant KDR
T6 construct: purchased Carna Biosciences, Inc

EGFR(L858R) = target: T7, EGFR(L858R) (Homo sapiens, UniProt P00533, L858R); details: at 10 nM; recombinant EGFR(L858R)
T7 construct: purchased Carna Biosciences, Inc

EGFR(d746-750) = target: T8, EGFR(d746-750) (Homo sapiens, UniProt P00533, DEL746-750); details: at 10 nM; recombinant EGFR(d746-750)
T8 construct: purchased Carna Biosciences, Inc

skMLCK = target: T9, skMLCK (Homo sapiens, UniProt Q9H1R3); details: at 10 nM; recombinant skMLCK
T9 construct: purchased Carna Biosciences, Inc

MAP2K1 = target: T10, MAP2K1 (Homo sapiens, UniProt Q02750); details: at 10 nM; recombinant MAP2K1
T10 construct: purchased Carna Biosciences, Inc

BRK = target: T11, BRK (Homo sapiens, UniProt Q13882); details: at 10 nM; recombinant BRK
T11 construct: purchased Carna Biosciences, Inc

PDGFRα(V561D) = target: T12, PDGFRα(V561D) (Homo sapiens, UniProt P16234, V561D); details: at 10 nM; recombinant PDGFRα(V561D)
T12 construct: purchased Carna Biosciences, Inc

FLT1 = target: T13, FLT1 (Homo sapiens, UniProt P17948); details: at 10 nM; recombinant FLT1
T13 construct: purchased Carna Biosciences, Inc

JAK3 = target: T14, JAK3 (Homo sapiens, UniProt P52333); details: at 10 nM; recombinant JAK3
T14 construct: purchased Carna Biosciences, Inc

ALK = target: T15, ALK (Homo sapiens, UniProt Q9UM73); details: at 10 nM; recombinant ALK
T15 construct: purchased Carna Biosciences, Inc

MET = target: T16, MET (Homo sapiens, UniProt P08581); details: at 10 nM; recombinant MET
T16 construct: purchased Carna Biosciences, Inc

Erk1 = target: T17, Erk1 (Homo sapiens, UniProt P27361); details: at 10 nM; recombinant Erk1
T17 construct: purchased Carna Biosciences, Inc

KIT(T670I) = target: T18, KIT(T670I) (Homo sapiens, UniProt P10721, T670I); details: at 10 nM; recombinant KIT(T670I)
T18 construct: purchased Carna Biosciences, Inc

PDGFRα(T674I) = target: T19, PDGFRα(T674I) (Homo sapiens, UniProt P16234, T674I); details: at 10 nM; recombinant PDGFRα(T674I)
T19 construct: purchased Carna Biosciences, Inc

KIT(D816E) = target: T20, KIT(D816E) (Homo sapiens, UniProt P10721, D816E); details: at 10 nM; recombinant KIT(D816E)
T20 construct: purchased Carna Biosciences, Inc

JAK1 = target: T21, JAK1 (Homo sapiens, UniProt P23458); details: at 10 nM; recombinant JAK1
T21 construct: purchased Carna Biosciences, Inc

EGFR(T790M/L858R) = target: T22, EGFR(T790M/L858R) (Homo sapiens, UniProt P00533, L858R/T790M); details: at 10 nM; recombinant EGFR(T790M/L858R)
T22 construct: purchased Carna Biosciences, Inc

JAK2 = target: T23, JAK2 (Homo sapiens, UniProt O60674); details: at 10 nM; recombinant JAK2
T23 construct: purchased Carna Biosciences, Inc

KIT(V654A) = target: T24, KIT(V654A) (Homo sapiens, UniProt P10721, V654A); details: at 10 nM; recombinant KIT(V654A)
T24 construct: purchased Carna Biosciences, Inc

MAP2K2 = target: T25, MAP2K2 (Homo sapiens, UniProt P36507); details: at 10 nM; recombinant MAP2K2
T25 construct: purchased Carna Biosciences, Inc

MNK1 = target: T26, MNK1 (Homo sapiens, UniProt Q9BUB5); details: at 10 nM; recombinant MNK1
T26 construct: purchased Carna Biosciences, Inc

WNK3 = target: T27, WNK3 (Homo sapiens, UniProt Q9BYP7); details: at 10 nM; recombinant WNK3
T27 construct: purchased Carna Biosciences, Inc

SRM = target: T28, SRM (Homo sapiens, UniProt Q9H3Y6); details: at 10 nM; recombinant SRM
T28 construct: purchased Carna Biosciences, Inc

KIT(D816Y) = target: T29, KIT(D816Y) (Homo sapiens, UniProt P10721, D816Y); details: at 10 nM; recombinant KIT(D816Y)
T29 construct: purchased Carna Biosciences, Inc

LYNb = target: T30, LYNb (Homo sapiens, UniProt P07948); details: at 1 nM; recombinant LYNb
T30 construct: purchased Carna Biosciences, Inc

ABL(T315I) = target: T31, ABL(T315I) (Homo sapiens, UniProt P00519, T315I); details: at 1 nM; recombinant ABL(T315I)
T31 construct: purchased Carna Biosciences, Inc

ITK = target: T32, ITK (Homo sapiens, UniProt Q08881); details: at 1 nM; recombinant ITK
T32 construct: purchased Carna Biosciences, Inc
T32 sequence (Q08881 whole entry): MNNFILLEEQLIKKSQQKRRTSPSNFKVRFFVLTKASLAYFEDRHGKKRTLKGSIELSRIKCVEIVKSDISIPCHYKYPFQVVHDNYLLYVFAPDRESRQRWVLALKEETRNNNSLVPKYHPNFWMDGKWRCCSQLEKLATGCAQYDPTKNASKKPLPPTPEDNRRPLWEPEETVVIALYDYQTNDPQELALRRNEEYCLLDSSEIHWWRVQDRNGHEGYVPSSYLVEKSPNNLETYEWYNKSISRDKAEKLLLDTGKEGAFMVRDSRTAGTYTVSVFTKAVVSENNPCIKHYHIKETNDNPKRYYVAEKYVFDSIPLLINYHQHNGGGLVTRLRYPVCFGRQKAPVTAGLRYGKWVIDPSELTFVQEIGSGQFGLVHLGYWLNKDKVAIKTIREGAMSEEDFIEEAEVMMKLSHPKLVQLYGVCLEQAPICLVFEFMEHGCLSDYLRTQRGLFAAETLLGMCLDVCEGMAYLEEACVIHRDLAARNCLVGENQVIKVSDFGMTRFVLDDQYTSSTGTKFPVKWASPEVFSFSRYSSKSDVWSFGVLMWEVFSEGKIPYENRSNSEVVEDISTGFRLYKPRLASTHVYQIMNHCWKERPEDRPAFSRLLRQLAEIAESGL

T25 sequence (P36507 whole entry): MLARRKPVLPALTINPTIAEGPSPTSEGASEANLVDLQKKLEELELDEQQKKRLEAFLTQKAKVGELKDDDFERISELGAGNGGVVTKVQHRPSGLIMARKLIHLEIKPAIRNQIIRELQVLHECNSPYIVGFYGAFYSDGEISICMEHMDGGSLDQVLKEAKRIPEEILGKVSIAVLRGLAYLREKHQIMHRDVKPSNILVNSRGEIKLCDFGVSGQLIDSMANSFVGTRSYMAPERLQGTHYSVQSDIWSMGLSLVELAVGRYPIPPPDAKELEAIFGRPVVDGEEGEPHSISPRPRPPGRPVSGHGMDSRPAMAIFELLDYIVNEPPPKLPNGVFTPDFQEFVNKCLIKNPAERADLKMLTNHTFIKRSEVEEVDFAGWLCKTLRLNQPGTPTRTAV
T13 sequence (P17948 27-1338): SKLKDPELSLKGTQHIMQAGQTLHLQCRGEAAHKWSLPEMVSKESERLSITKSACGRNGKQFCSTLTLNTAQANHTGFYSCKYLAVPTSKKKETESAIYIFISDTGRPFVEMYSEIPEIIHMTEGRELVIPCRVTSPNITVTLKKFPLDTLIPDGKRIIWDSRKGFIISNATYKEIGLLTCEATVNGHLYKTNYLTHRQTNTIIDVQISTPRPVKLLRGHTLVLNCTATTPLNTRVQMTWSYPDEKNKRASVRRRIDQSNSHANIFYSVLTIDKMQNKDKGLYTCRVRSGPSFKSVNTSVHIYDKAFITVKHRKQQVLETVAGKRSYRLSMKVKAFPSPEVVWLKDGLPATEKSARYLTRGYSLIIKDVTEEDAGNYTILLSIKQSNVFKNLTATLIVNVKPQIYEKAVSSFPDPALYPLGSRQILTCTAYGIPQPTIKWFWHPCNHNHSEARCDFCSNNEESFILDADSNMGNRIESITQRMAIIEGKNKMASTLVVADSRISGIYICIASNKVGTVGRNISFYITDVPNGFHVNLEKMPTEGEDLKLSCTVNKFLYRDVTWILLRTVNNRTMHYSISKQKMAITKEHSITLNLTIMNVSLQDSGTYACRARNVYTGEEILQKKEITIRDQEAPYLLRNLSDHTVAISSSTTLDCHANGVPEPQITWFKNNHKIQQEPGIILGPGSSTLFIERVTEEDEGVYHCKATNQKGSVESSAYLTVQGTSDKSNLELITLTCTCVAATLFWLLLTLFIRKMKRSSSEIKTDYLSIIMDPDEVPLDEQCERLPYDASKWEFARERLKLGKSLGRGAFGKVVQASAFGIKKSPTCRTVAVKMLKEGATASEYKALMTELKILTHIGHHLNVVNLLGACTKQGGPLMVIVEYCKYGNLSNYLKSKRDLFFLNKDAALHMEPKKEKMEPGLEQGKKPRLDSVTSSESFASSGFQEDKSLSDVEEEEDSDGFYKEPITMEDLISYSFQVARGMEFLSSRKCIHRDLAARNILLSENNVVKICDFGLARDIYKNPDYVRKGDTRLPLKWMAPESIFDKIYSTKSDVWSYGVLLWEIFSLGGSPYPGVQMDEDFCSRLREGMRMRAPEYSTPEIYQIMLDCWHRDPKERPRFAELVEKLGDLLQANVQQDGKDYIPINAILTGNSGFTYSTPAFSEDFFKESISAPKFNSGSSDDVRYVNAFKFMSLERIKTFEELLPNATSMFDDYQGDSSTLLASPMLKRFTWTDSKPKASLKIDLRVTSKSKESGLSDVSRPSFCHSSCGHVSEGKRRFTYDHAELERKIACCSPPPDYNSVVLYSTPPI
T5 sequence (P07949 29-1114 Y791F): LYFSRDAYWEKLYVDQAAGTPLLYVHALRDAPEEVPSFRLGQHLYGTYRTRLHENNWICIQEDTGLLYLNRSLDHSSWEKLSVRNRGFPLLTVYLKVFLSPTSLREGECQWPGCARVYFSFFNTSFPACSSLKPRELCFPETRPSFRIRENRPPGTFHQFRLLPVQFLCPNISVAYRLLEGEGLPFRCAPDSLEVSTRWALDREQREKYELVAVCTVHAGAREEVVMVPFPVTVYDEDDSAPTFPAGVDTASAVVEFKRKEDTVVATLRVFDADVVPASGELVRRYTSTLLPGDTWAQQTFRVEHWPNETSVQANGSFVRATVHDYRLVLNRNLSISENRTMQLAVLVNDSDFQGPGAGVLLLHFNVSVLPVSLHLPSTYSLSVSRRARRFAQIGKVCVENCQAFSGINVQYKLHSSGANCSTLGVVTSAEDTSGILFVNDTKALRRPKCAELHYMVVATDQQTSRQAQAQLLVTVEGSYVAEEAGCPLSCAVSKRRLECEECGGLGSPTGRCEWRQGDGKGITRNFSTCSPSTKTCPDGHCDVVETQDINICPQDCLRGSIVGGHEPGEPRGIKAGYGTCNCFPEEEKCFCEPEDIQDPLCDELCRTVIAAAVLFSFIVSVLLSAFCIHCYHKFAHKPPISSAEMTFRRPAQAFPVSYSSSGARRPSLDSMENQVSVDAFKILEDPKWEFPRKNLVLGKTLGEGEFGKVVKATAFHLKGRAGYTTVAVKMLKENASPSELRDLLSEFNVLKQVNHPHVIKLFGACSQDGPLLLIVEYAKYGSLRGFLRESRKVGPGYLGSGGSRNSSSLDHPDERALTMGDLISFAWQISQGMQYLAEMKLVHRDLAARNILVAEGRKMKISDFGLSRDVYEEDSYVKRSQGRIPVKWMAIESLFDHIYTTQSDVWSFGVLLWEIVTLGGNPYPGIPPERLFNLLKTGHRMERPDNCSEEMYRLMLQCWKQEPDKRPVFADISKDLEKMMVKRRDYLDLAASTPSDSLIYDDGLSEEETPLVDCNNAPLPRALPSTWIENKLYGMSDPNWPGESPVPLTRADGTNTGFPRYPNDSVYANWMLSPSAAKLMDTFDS
T7 sequence (P00533 25-1210 L858R): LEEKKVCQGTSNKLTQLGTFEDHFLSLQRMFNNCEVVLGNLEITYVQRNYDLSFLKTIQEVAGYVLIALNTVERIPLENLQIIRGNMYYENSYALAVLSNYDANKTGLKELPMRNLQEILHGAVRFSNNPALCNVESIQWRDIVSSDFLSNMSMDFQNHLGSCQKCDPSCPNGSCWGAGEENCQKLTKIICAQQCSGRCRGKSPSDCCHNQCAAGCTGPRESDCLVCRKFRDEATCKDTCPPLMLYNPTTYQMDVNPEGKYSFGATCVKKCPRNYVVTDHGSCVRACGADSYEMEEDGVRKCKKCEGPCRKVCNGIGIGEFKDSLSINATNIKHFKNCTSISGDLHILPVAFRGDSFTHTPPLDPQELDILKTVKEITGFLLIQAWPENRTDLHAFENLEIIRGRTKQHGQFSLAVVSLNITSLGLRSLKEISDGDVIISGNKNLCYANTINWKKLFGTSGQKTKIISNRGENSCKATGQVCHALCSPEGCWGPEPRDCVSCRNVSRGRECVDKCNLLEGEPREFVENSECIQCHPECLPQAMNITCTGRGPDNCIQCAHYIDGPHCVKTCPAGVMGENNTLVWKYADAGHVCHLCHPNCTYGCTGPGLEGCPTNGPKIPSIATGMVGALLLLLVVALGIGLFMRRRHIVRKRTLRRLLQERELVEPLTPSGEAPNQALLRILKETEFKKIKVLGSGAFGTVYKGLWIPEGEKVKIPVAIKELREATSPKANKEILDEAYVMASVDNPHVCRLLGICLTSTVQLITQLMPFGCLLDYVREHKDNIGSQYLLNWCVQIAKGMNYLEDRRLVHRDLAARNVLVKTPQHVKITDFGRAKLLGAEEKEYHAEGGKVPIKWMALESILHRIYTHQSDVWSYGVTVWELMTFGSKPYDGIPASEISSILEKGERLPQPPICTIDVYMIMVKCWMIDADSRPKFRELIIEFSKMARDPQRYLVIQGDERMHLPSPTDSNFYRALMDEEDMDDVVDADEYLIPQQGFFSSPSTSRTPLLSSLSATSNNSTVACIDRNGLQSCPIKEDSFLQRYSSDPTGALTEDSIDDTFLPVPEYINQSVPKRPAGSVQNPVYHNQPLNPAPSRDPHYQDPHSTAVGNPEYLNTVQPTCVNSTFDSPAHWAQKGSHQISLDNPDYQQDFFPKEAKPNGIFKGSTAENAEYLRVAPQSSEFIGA
T30 sequence (P07948 1-491 isoform P07948-2): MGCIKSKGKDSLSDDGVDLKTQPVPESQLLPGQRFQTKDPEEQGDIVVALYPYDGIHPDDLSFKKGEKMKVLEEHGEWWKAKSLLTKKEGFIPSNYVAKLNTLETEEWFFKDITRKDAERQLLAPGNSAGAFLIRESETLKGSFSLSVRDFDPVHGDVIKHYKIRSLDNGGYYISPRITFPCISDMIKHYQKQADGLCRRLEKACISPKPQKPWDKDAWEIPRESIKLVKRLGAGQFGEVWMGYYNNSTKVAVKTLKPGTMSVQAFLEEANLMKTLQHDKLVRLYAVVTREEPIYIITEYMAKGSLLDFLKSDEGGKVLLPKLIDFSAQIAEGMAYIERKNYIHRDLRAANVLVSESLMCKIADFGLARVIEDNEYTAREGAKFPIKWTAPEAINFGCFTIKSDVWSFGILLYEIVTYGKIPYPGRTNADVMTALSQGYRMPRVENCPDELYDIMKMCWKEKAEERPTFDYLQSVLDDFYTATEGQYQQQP

- inhibition at 0.01 µM (KIT(D816V)): > 50%
- inhibition at 0.01 µM (EGFR(T790M)): < 50%
- inhibition at 0.01 µM (EGFR(d746-750/T790M)): < 50%
- inhibition at 0.01 µM (CSK): > 50%
- inhibition at 0.01 µM (RET(Y791F)): < 50%
- inhibition at 0.01 µM (KDR): < 50%
- inhibition at 0.01 µM (EGFR(L858R)): < 50%
- inhibition at 0.01 µM (EGFR(d746-750)): < 50%
- inhibition at 0.01 µM (skMLCK): < 50%
- inhibition at 0.01 µM (MAP2K1): < 50%
- inhibition at 0.01 µM (BRK): > 50%
- inhibition at 0.01 µM (PDGFRα(V561D)): < 50%
- inhibition at 0.01 µM (FLT1): < 50%
- inhibition at 0.01 µM (JAK3): < 50%
- inhibition at 0.01 µM (ALK): < 50%
- inhibition at 0.01 µM (MET): < 50%
- inhibition at 0.01 µM (Erk1): < 50%
- inhibition at 0.01 µM (KIT(T670I)): < 50%
- inhibition at 0.01 µM (PDGFRα(T674I)): < 50%
- inhibition at 0.01 µM (KIT(D816E)): < 50%
- inhibition at 0.01 µM (JAK1): < 50%
- inhibition at 0.01 µM (EGFR(T790M/L858R)): < 50%
- inhibition at 0.01 µM (JAK2): < 50%
- inhibition at 0.01 µM (KIT(V654A)): < 50%
- inhibition at 0.01 µM (MAP2K2): < 50%
- inhibition at 0.01 µM (MNK1): < 50%
- inhibition at 0.01 µM (WNK3): < 50%
- inhibition at 0.01 µM (SRM): > 50%
- inhibition at 0.01 µM (KIT(D816Y)): > 50%
SMILES: [2H]c1cc(C)c(NC(=O)c2cnc(Nc3cc(N4CCCCC4)nc(C)n3)s2)c(Cl)c1 [Compound I, N-(2-chloro-4-deuterio-6-methyl-phenyl)-2-[[2-methyl-6-(1-piperidyl)pyrimidin-4-yl]amino]thiazole-5-carboxamide]

- inhibition at 0.001 µM (LYNb): > 50%
- inhibition at 0.001 µM (ABL(T315I)): < 50%
- inhibition at 0.001 µM (ITK): < 50%
SMILES: [2H]c1cc(C)c(NC(=O)c2cnc(Nc3cc(N4CCC(O)CC4)nc(C)n3)s2)c(Cl)c1 [Compound II, N-(2-chloro-4-deuterio-6-methyl-phenyl)-2-[[6-(4-hydroxy-1-piperidyl)-2-methyl-pyrimidin-4-yl]amino]thiazole-5-carboxamide]
